Source: patent US11369657B2, “Small molecule polypeptide for preventing and restraining inflammation and application of same” (SHANGHAI FIRST PEOPLE'S HOSPITAL, priority 2011, dated 2022)
“Also recorded” adds a separate entry of the source. Peptide text beside a SMILES is read from it.

Legend:
[1] = Water solubility of the synthesized powder; assay type: physicochemical; settings: white powder
Procedure: 7. 120 mg of polypeptide LS22 was obtained as white powder with good water solubility (purification >95%) and then sealed and stored for use at −20° C.

[2] = system: TNF-α; assay: TNF-α level in supernatant of LPS-stimulated RAW264.7 cells (ELISA); assay type: cell-based, mouse; settings: 0.1-10 μM LS22 pretreatment 30 min, LPS 100 ng/mL 24 hours
Procedure: (§1) Mouse RAW264.7 cells were inoculated on the 24-well cell culture plate (400 μl/well). RAW264.7 was pretreated with 0.1-10 μM of LS22 for 30 min, and then LPS (100 ng/mL) was added and co-incubated for 24 hours. Cell supernatant in each well was collected and TNF-α and IL-6 level was determined by ELISA kits.
(§2) The experiment date was shown as x±s. A SPSS 11.0 statistical package was used for statistic analysis and a one-way ANOVA was used to compare RAW264.7 cell viability results, TNF-α and IL-6 level between the groups, and P<0.05 represents statistical significance.
(§3) Derived Polypeptides were prepared as follows. Polypeptides were prepared according to the method in Example 1, and the inhibiting effect of the polypeptides on ocular inflammation was determined according to Examples 2-3.

[3] = system: RAW264.7 cells; assay: Cell viability assay (MTS); assay type: cell-based, mouse; settings: RAW264.7 cells co-incubated 24 hours
Procedure: RAW264.7 cells were placed into a 96-well plate for 24-hour adherent culture, and then peptides with different concentrations were added into each well and co-cultured for another 24 hours, while no treatment was taken to the control group. 20 μl of MTS solution was added into each well after 24 hours and cultured for another 3 hours. The culture plate was taken to determine the absorbance of each well at 490 nm.
as §2

[4] = system: IL-6; assay: IL-6 level in supernatant of LPS-stimulated RAW264.7 cells (ELISA); assay type: cell-based, mouse; settings: 0.1-10 μM LS22 pretreatment 30 min, LPS 100 ng/mL 24 hours
Procedure: as §1, §2, §3

[5] = system: uveitis in rats; assay: LPS-induced uveitis in rats, intravitreal injection of polypeptide; assay type: in vivo, rat; settings: for protein concentration in rat aqueous humor / exuded cells count in rat anterior chamber / aqueous humor: 24 hours after LPS injection, vs LPS+PBS group; for protein concentration in rat aqueous humor: BCA method, LS22 intravitreally; for exuded cells count in rat anterior chamber / aqueous humor: LS22 10, 50 or 100 μg intravitreally
Procedure: 8-week old male wistar rats were randomly divided into 5 groups with 10 rats for each, which are blank+PBS, LPS+PBS group, LPS+LS22 10 μg group, LPS+LS22 50 μg group, LPS+LS 22 100 μg group. 0.15 ml of pentobarbital (5.47 g/100 ml normal saline) was intraperitoneally injected into the rats for anesthesia. 100 μl of LPS (2 μg/μl) was subcutaneously injected into the right hindpaw of rats both in treating group and positive control group. An equal volume of normal saline was injected into the same position of the rats in blank+PBS group. 5% tropicamide and 1% tetracaine was dropped on the eye for mydriasis and local anesthesia. Under operating microscope, 10 μl of polypeptide or PBS of equal volume was intravitreally injected of bilateral eyes. The pars plana was vertically punctured by a 29-gauge microsyringe at 1 mm from corneal limbus and the vitreous cavity was reached. The drug liquid was then injected into the center of the vitreous cavity under direct vision and the needle was pulled out quickly after remaining for a few seconds. All above steps were conducted aseptically.
24 hours after LPS was injected, 6 rats in each experimental group were subjected to anterior chamber puncture by 30 G needle under deep anesthesia, and then bilateral aqueous humor was collected. Other 4 rats were sacrificed by cervical dislocation and the eyeballs were taken and immobilized.
The aqueous humor sample was diluted to 1:5 by trypan blue and then added into hemocytometer for manual counting under optical microscope, and total protein concentration was determined by BCA method.
The eyeballs were taken and immobilized by neutral formaldehyde (10%) and stored at 4° C. The sample was embedded into paraffin, cut into sagittal slices with the thickness of 5 μm, and then subjected to HE staining. The iris and ciliary body, anterior chamber, vitreous body and retina of the eyeballs were observed under optical microscope. The exuded cells in anterior chamber and vitreous cavity were counted by the same pathologist.
The experiment date was shown as x±s. A one-way ANOVA was used to compare the exuded cells and total protein concentration between these groups, and P<0.05 represents statistical significance.

[6] = system: ocular inflammation; assay: Inhibiting effect of derived polypeptides on ocular inflammation according to Examples 2-3
Procedure: as §3

| Compound | water solubility [1] | LPS-induced TNF-α level in cell supernatant [2] | toxicity to the cells [3] | cell viability compared with the control group ([3]; MTS) | LPS-induced IL-6 level in cell supernatant [4] | protein concentration in rat aqueous humor [5] | protein concentration in rat aqueous humor ([5]; listed as LSS) | exuded cells count in rat anterior chamber / aqueous humor [5] | exuded cells count in rat anterior chamber / aqueous humor ([5]; listed as LSS) | inflammatory cells in tissues (histopathologic examination) ([5]; HE staining, anterior chamber, ciliary body, posterior vitreous cavity, after LPS injection) | inhibition of uveitis ([5]; rats, LPS-induced) | anti-inflammation effect ([6]; derived polypeptides, 10 μg group or 10 μM) | anti-inflammation effect compared with LS22 ([6]; weaker than LS22) |
| --- | --- | --- | --- | --- | --- | --- | --- | --- | --- | --- | --- | --- | --- |
| CC[C@H](C)[C@H](NC(=O)[C@H](CO)NC(=O)[C@H](CC(N)=O)NC(=O)[C@H](Cc1c[nH]cn1)NC(=O)[C@H](CO)NC(=O)[C@H](CC(C)C)NC(=O)[C@H](CC(=O)O)NC(=O)[C@@H](N)CC(C)C)C(=O)N[C@@H](CO)C(=O)N[C@@H](CCC(N)=O)C(=O)N[C@@H](CCC(=O)O)C(=O)N[C@@H](CO)C(=O)N[C@@H](C)C(=O)N[C@@H](CC(C)C)C(=O)N[C@@H](Cc1ccc(O)cc1)C(=O)N[C@@H](CC(C)C)C(=O)N[C@@H](CC(C)C)C(=O)N[C@@H](CCC(=O)O)C(=O)N[C@H](C(=O)N[C@@H](CC(C)C)C(=O)N1CCC[C@H]1C(=O)N[C@@H](CO)C(=O)O)[C@@H](C)O [LS22] (H-LDLSHNSISQESALYLLETLPS-OH; N-terminus assumed) | good | significantly inhibited; also recorded: remarkably inhibited | no toxicity was observed | no statistically significant difference | significantly inhibited; also recorded: remarkably inhibited | remarkably decreased | significantly reduced | remarkably reduced | significantly reduced | greatly reduced; also recorded: significantly reduced | significantly inhibited uveitis | – | – |
| Polypeptide 7: sequence as set forth by SEQ ID NO.: 5 (ALQSLNLSENGLSLDAVLGLV) | – | – | – | – | – | – | – | – | – | – | – | exhibits an anti-inflammation effect to some extent | about 30% |
